Data taken from US7122570B2, “Tetrahydrocarbazol derivatives as ligands for G-protein-coupled receptors (GPCR)” (Zentaris AG, priority 2001, dated 2006).

How the values were obtained:
[1] = target: T1, GnRH receptor (Homo sapiens, UniProt P30968); assay: Ca2+ release, human; assay type: cell-based; details: read-out: Ca^2+ Release Human IC50
T1 sequence (P30968 1-328): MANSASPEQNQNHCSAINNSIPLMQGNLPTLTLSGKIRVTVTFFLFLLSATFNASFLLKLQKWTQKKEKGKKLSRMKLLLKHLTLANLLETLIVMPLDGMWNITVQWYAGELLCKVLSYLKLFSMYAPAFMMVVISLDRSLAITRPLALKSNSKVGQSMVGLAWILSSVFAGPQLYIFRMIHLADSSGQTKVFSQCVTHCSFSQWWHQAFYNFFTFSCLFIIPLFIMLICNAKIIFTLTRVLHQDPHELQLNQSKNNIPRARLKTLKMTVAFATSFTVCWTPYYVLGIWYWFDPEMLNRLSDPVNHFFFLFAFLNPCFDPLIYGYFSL

[2] = target: T2, hGnRH-Receptor (Homo sapiens, UniProt P30968); assay: GnRH receptor assay: competition binding with 125I-labeled buserelin on cell membranes; details: competition with 125I-buserelin
T2 construct: expressed in transfected cells; host or cells: CHO-3 cells (Schmid et al., J. Biol. Chem. 275 (2000), 9193-9200), membrane preparation
T2 sequence (P30968 1-328): T1 sequence (P30968 1-328)
Experimental: Buserelin is ordered from Welding (Frankfurt/Main, Germany). The compound is labeled with ^125I by use of the chloramine T-method and Na^125I (4000 Ci/mmol; Amersham-Buchler, Brunswick, Germany). The labeled substance is purified by reverse phase HPLC on a Spherisorb ODS II column (250×4 mm, particle size 3 μm) by elution with 50% acetonitrile/0.15% trifluoroacetic acid at a flow rate of 0.5 ml/minute. The specific activity is 2000 Ci/mmol.
Alpha T3-1 cells (Bilezikjian et al., Mol. Endocrinol 5 (1991), 347–355) are cultivated in DMEM medium (Gibco-BRL, Eggenstein-Leopoldshafen, Germany) with penicillin (100 I.U./ml), streptomycin (0.1 mg/ml) and glutamine (0.01 mol/l) and 10% fetal calf serum (FCS; PAA Laboratories, Coelbe, Germany) on plastic tissue culture plates (Nunc, 245×245×20 mm). CHO-3 cells (Schmid et al., J. Biol. Chem. 275 (2000), 9193–9200) are cultivated under identical conditions, apart from the fact that Ham's F12 medium (Gibco-BRL) is used.
Ten confluent cell culture plates are flushed twice with 50 ml of phosphate-buffered salt solution (PBS). The cells are harvested by scraping them off with a rubber scraper in 5 ml of PBS and sedimented by centrifuging in a laboratory centrifuge (Heraeus) at 800 rpm for 10 minutes. The cell pellet is resuspended in 5 ml of 0.25 mol/l of saccharose/0.01 mol/l of triethanolamine, pH 7.4. The cells are lysed by three cycles of freezing in dry ice/ethanol bath and thawing at room temperature. The lysate is centrifuged at 900 rpm for 10 minutes, and the sediment is discarded. The supernatant is centrifuged at 18,000 rpm in a Sorvall SS34 rotor for 30 minutes. The pellet (cell membranes) is suspended by Potters in 5 ml of assay buffer (0.25 mol/l of saccharose, 0.01 mol/l of triethanolamine, pH 7.5, 1 mg/ml of ovalbumin) and stored in 200 μl of aliquots at −20° C. The determination of protein is carried out according to the Bradford method (Anal. Biochem. 72 (1976), 248–254).
Binding studies for competition curves are performed as triplicates. A test sample contains 60 μl of cell membrane suspension (10 μg of protein for αT3-1 cells or 40 μg of protein for CHO3 cells), 20 μl of ^125I-labeled buserelin (100,000 Ipm per sample for competition curves and between 1,500 and 200,000 Ipm for saturation experiments) and 20 μl of test buffer or test compound solution. The test compounds are dissolved in distilled water or 50% ethanol. Serial dilutions (5×10^−6 mol/l to […]) are produced in test buffer. The unspecific binding is determined in the presence of excess unlabeled buserelin (10^−6 mol/1). The test samples are incubated for 30 minutes at room temperature. Bonded and free ligands are separated by filtration (Whatman GF/C-filter, 2.5 cm diameter) with use of an Amicon 10x collecting device and washed twice with 5 ml of 0.02 mol/l of Tris/HCl, pH 7.4. The filters are moistened with 0.3% polyethylenimine (Serva; Heidelberg, Germany) for 30 minutes to reduce the unspecific binding. The radioactivity that was held up by the filter is determined in a 5-channel gamma-counter (Wallac-LKB 1470 Wizard).
In the table below, the IC50 values that are obtained for the preferred compounds, as defined above, are indicated.

[3] = target: T1, GnRH receptor; assay: Receptor binding assay with 125I-triptorelin on transfected LTK cells; details: competition with 125I-triptorelin, whole LTK cells, 60 minutes at 37° C.
Experimental: ^125I-Triptorelin [^125I-(D)-Trp6-GnRH] is ordered from the Biotrend Company (Cologne, Germany). The specific activity in each case is 2.13 Ci/mmol. All other chemicals are ordered from commercial sources at the highest available purity.
Transfixed LTK′ cells (ATCC No. CCL-11.3) are cultivated in DMEM medium (Invitrogen Life Technologies, Germany) with penicillin (100 I.U./ml), streptomycin (0.1 mg/ml) and glutamine (0.01 mol/l) and 10% fetal calf serum (FCS; Invitrogen Life Technologies, Germany) on plastic tissue culture plates (Nunc, Germany, 245×245×20 nun).
80% confluent cell culture plates are washed twice with 50 ml of phosphate-buffered salt solution (PBS) and dissolved below with 0.01 M EDTA solution. The cells are pelletized by centrifuging at 200×g for 5 minutes in a laboratory centrifuge (Kendro, Germany). The cell pellet is resuspended in 3 ml of binding medium (DMEM; 10 mmol of Hepes; 0.5% BSA; 0.1% NaN3; 1 g/l of bacitracin (freshly added, stock 100×); 0.1 g/l of SBTI (freshly added, stock 1000×), and the cell count is determined by means of trypan blue staining in a Neubauer counting chamber. The cell suspension is set with binding medium to a concentration of 5×10^5 Z/0.05 ml.
Binding tests for competition curves are performed as duplicates. The test substances are used as 10 mmol DMSO solutions. They are diluted with binding medium to 4× the final concentration used. 25 μl of the substance dilution is mixed with 25 μl of tracer solution (^125I-triptorelin). The concentration of tracer is set to about 50,000 cpm (measured in Cobra II, γ-counter, PE Liefe Science, Germany) in the final reaction volume of 100 μl.
200 μl of a silicone/paraffin oil mixture (84%:16%) is introduced into 650 μl pointed-bottom tubes (Roth, Germany). 50 μl of the cell suspension is pipetted thereto and subsequently 50 μl of the test substance/tracer mixture. The tubes are sealed and incubated for 60 minutes at 37° C. in an incubator that rotates via the top. After incubation, the samples are centrifuged in a centrifuge (Kendro, Germany) at 900 rpm and subsequently flash-frozen in liquid N2. The tip with the cell pellet is cut off and inserted into the prepared counting tube (Roth, Germany). The remainder of the pointed-bottom tube with the remaining supernatant is also inserted into a counting tube. The measurement is made in a γ-counter for 1 minute/sample.
The evaluation of the samples is carried out after calculating the specific bond in comparison to untreated cells, after the unspecific bond (excess unlabeled ligand, 1 mmol) is removed by means of GraphPad Prism (GraphPad Software Inc., USA).

IC50 [1]	IC50 [2]	EC50 [3]	SMILES
500 nM	700 nM	–	COc1cccc2c3c([nH]c12)CC[C@](NC(=O)Cc1ccc(Cl)cc1)(C(=O)N1CCC[C@H]1C(N)=O)C3 [Compound 189a, (2S)-1-[[(3R)-3-[[(4-Chlorophenyl)acetyl]-amino]-2,3,4,9-tetrahydro-8-methoxy-1H-carbazol-3-yl]carbonyl]-2-pyrrolidine-carboxamide]
500 nM	2000 nM	–	CC[C@H](C)[C@H](NC(=O)OCc1ccccc1)C(=O)N[C@]1(C(=O)N2C3CCCCC3C[C@H]2C(N)=O)CCc2[nH]c3ccccc3c2C1 (stereo partly drawn) [Compound 190a, Phenylmethyl [(1S,2S)-1-[[[(3R)-3-[[(2S)-2-(aminocarbonyl)octahydro-1H-indol-1-yl]-carbonyl]-2,3,4,9-tetrahydro-1H-carbazol-3-yl]-amino]carbonyl]-2-methylbutyl]carbamate]
3000 nM	2500 nM	–	CC[C@H](C)[C@H](NC(=O)OCc1ccccc1)C(=O)N[C@]1(C(=O)N[C@H](C(=O)NC)C(C)C)CCc2[nH]c3ccccc3c2C1 [Compound 222a, Phenylmethyl [(1S,2S)-2-methyl-1-[[[(3R)-2,3,4,9-tetrahydro-3-[[[(1S)-2-methyl-1-[(methylamino)carbonyl]-propyl]amino]carbonyl]-1H-carbazol-3-yl]amino]carbonyl]-butyl]carbamate]
1000 nM	9000 nM	–	CC(C)[C@H](NC(=O)[C@@]1(NCCCCCCc2ccccc2)CCc2[nH]c3ccccc3c2C1)C(N)=O [Compound 234a, (3R)-N-[(1S)-1-(Aminocarbonyl)-2-methylpropyl]-2,3,4,9-tetrahydro-3-[(6-phenylhexyl)amino]-1H-carbazole-3-carboxamide]
500 nM	400 nM	–	CC[C@H](C)[C@H](NC(=O)OCc1ccccc1)C(=O)N[C@]1(C(=O)N[C@H](CO)C(C)C)CCc2[nH]c3ccccc3c2C1 [Compound 267a, Phenylmethyl [(1S,2S)-1-[[[(3R)-3-[[[(1S)-1-(hydroxymethyl)-2-methylpropyl]amino]-carbonyl]-2,3,4,9-tetrahydro-1H-carbazol-3-yl]amino]carbonyl]-2-methylbutyl]carbamate]
3000 nM	2000 nM	–	c1ccc(CCCC2(CNCc3ccccn3)CCc3[nH]c4ccccc4c3C2)cc1 (centres unmarked) [Compound 279, 2,3,4,9-Tetrahydro-3-(3-phenylpropyl)-N-(2-pyridinylmethyl)-1H-carbazole-3-methanamine]
3000 nM	1000 nM	–	Clc1cc(Cl)c2[nH]c3c(c2c1)CC(CCCc1ccccc1)(CNCc1ccccn1)CC3 (centres unmarked) [Compound 283, 6,8-dichloro-2,3,4,9-tetrahydro-3-(3-phenylpropyl)-N-(2-pyridinylmethyl)-1H-carbazole-3-methanamine]
7000 nM	7000 nM	–	CC(C)[C@@H](CO)NCC1(CCCc2ccccc2)CCc2[nH]c3ccccc3c2C1 (stereo partly drawn) [Compound 284, (2S)-3-Methyl-2-[[[2,3,4,9-tetrahydro-3-(3-phenylpropyl)-1H-carbazol-3-yl]methyl]-amino]-1-butanol]
–	–	288 nM	CC[C@H](C)[C@H](NC(=O)OCc1ccccc1)C(=O)N[C@]1(C(=O)N[C@H](C(N)=O)C(C)(C)C)CCc2[nH]c3c(Cl)cc(Cl)cc3c2C1 [Compound 298, Phenylmethyl [(1S,2S)-1-[[[(3R)-3-[[[(1S)-1-(aminocarbonyl)-2,2-dimethylpropyl]amino]carbonyl]-6,8-dichloro-2,3,4,9-tetrahydro-1H-carbazol-3-yl]amino]car-bonyl]-2-methylbutyl]carbamate]
–	–	21 nM	CC[C@H](C)[C@H](NC(=O)[C@@]1(NC(=O)[C@H](CCc2ccc(O)cc2)NC(=O)OCc2ccccc2)CCc2[nH]c3c(Cl)cc(Cl)cc3c2C1)C(N)=O [Compound 303, Phenylmethyl [(1S)-1-[[[(3R)-3-[[[(1S,2S)-1-(aminocarbonyl)-2-methylbutyl]amino]carbonyl]-6,8-dichloro-2,3,4,9-tetrahydro-1H-carbazol-3-yl]amino]car-bonyl]-3-(4-hydroxyphenyl)-propyl]carbamate]
–	–	56 nM	CC[C@H](C)[C@H](NC(=O)[C@@]1(NC(=O)[C@H](CC(C)C)NC(=O)OCc2ccccc2)CCc2[nH]c3c(Cl)cc(Cl)cc3c2C1)C(N)=O [Compound 305, Phenylmethyl [(1S)-1-[[[(3R)-3-[[[(1S,2S)-1-(aminocarbonyl)-2-methylbutyl]amino]carbonyl]-6,8-dichloro-2-3,4,9-tetrahydro-1H-carbazol-3-yl]amino]car-bonyl]-3-methylbutyl]carbamate]
–	–	77 nM	CC(C)C[C@H](NC(=O)[C@@]1(NC(=O)[C@H](CC(C)C)NC(=O)OCc2ccccc2)CCc2[nH]c3c(Cl)cc(Cl)cc3c2C1)C(N)=O [Compound 306, Phenylmethyl [(1S)-1-[[[(3R)-3-[[[(1S)-1-(aminocarbonyl)-3-methylbutyl]amino]carbonyl]-6,8-dichloro-2,3,4,9-tetrahydro-1H-carbazol-3-yl]amino]car-bonyl]-3-methylbutyl]carbamate]
